Reference: patent US10729688B2, “Hepatitis B antiviral agents” (Enanta Pharmaceuticals, Inc., priority 2018, dated 2020)
pEC50: −log10 of the molar value.

How the values were obtained:
[1] = Compound toxicity, ATPLite total ATP levels; format: cell-based; conditions: human, HepAD38 cells; 15,000 cells/well; three days after compound addition; total ATP levels reduced by 50% relative to no drug controls
Procedure: (§1) Methods: HepAD38 cells were maintained as previously reported (Ladner et al, Antimicrob. Agents Chemother. 1997, 4, 1715). Briefly, cells were passaged upon attaining confluency in DMEM/F12 media in the presence of 10% FBS, Penn/Strep, 250 μg/mL G418, and 1 ug/ml tetracycline. Compounds were screened by first washing cells three times with PBS to remove tetracycline, and plating in 96 well plates at 35,000 cells/well. Compounds dissolved in DMSO were then diluted 1:200 into wells containing cells. Five days after compound addition, material was harvested for analysis. For an extended 8 day analysis, cells were plated and treated as described above, but media and compound were refreshed on day 2 and day 5 post initial treatment.
Compound toxicity was evaluated by seeding cells at 15,000 cells/well and treating with compound as described above.

HBV = assay: HepAD38 antiviral assay: reduction of viral product accumulation; format: cell-based; conditions: Hepatitis B virus, 120 h; HepAD38 cells, tetracycline removed; harvest five days after compound addition; viral product (virion DNA by qPCR, or HBsAg/HBeAg by ELISA) reduced by 50% relative to no drug controls
Procedure: as §1
On harvest day, virion DNA was obtained by lysing with Sidestep Lysis and Stabilization Buffer and then quantified via quantitative real time PCR. Commercially available ELISA kits were used to quantitate the viral proteins HBsAg (Alpco) or HbeAg (US Biological) by following the manufacturer's recommended protocol after diluting samples to match the linear range of their respective assays. Irrespective of readout, compound concentrations that reduce viral product accumulation in the cell lysates or supernatants by 50% relative to no drug controls (EC50) are reported; EC50 ranges are as follows: A<0.1 μM; B 0.1-0.2 μM; C>0.2 μM.

SMILES	CC50 at 3 days [1]	pEC50 (HBV)
C[C@@H]1N(c2cnn3c2CN(C(=O)Nc2cc(F)c(F)c(F)c2)[C@H]2CCC[C@H]23)C(=O)OC1(C)C [Example 15]	> 25 µM	> 7.00
C[C@@H]1N(c2cnn3c2CN(C(=O)Nc2ccc(F)c(F)c2)[C@H]2CCC[C@H]23)C(=O)OC1(C)C [Example 17]	> 25 µM	> 7.00
C[C@@H]1N(c2cnn3c2CN(C(=O)Nc2ccc(F)c(Cl)c2)[C@H]2CCC[C@H]23)C(=O)OC1(C)C [Example 18]	> 25 µM	> 7.00
CC1(C)CN(c2cnn3c2CN(C(=O)Nc2cc(F)c(F)c(F)c2)[C@H]2CCC[C@H]23)C(=O)O1 [Example 19]	> 25 µM	> 7.00
CC(C)[C@H]1COC(=O)N1c1cnn2c1CN(C(=O)Nc1cc(F)c(F)c(F)c1)[C@H]1CCC[C@H]12 [Example 26]	> 25 µM	> 7.00
O=C(Nc1cc(F)c(F)c(F)c1)N1Cc2c(N3CCCS3(=O)=O)cnn2[C@@H]2CCCC[C@@H]21 [Example 51]	> 25 µM	> 7.00
O=C(Nc1cc(F)c(F)c(F)c1)N1Cc2c(N3C(=O)O[C@@H]4CCCC[C@@H]43)cnn2[C@@H]2CCC[C@@H]21 [Example 53]	> 25 µM	> 7.00
CC1(C)COC(=O)N1c1cnn2c1CN(C(=O)Nc1cc(F)c(F)c(F)c1)[C@H]1CCC[C@H]12 [Example 60]	> 25 µM	> 7.00
O=C(Nc1cc(F)c(F)c(F)c1)N1Cc2c(N3CCCS3(=O)=O)cnn2C[C@@H]1c1ccccn1 [Example 72]	> 25 µM	> 7.00
O=C(Nc1cc(F)c(F)c(F)c1)N1Cc2c(N3CCCS3(=O)=O)cnn2C[C@@H]1C1CC1 [Example 73]	> 25 µM	> 7.00
